Experimental findings from patent publication US10365269B2, “System and methods for detecting ribosome inhibition” (priority 2015, dated 2019) are described below.

Assay type in all cases: cell-based
One test deals with T1, TetR (Escherichia coli, UniProt P04483).
T1 construct: expressed in transfected cells; host or cells: E. coli DH5α transformed with pSH3-KF (tetR amplified from pSR26_2)
In words: Recovery of GFPuv fluorescence in E. coli DH5α containing pSH3-KF. Conditions: saturating ATC. As for the experimental part: (§1) All cell density and fluorescence measurements were taken in triplicate. 96-well culture plates (1 mL LB per well) with appropriate concentrations of necessary antibiotics and aminoglycoside were inoculated 1:100 from a saturated overnight liquid culture and allowed to grow for 48 hours at 37° C., 200 rpm shaking. For cell density assays, 40 μL of sample was taken from each well, diluted 5-fold, and OD600 was measured by microplate reader. The OD600 of the original culture was calculated by multiplying the reading by the dilution factor (Melançon et al., 2009, Bioorg. Med. Chem. Lett. 19:3845-3847). For cell pellet fluorescence imaging, cells were pelleted by centrifugation (4,000×g, 15 minutes, 4° C.) and the supernatant was decanted completely. […] For fluorescence quantification, cell pellets were resuspended in 1 mL of ¼×Ringer's solution (30.75 mM NaCl, 1.2 mM, KCl, 1.5 mM CaCl2, pH 7.3-7.4), 200 μL of cells from each well were transferred to black 96-well plates, and GFP fluorescence was measured (excitation=395 nm, bandwidth=9 nm; emission=509 nm, bandwidth=15 nm). Fluorescence intensities were calculated as fluorescence/OD600 of the sample minus fluorescence/OD600 of a sample of a non-GFP-expressing E. coli strain parental to the strain being analyzed in order to correct for both cell density and E. coli auto-fluorescence. […]

A further test relates to E. coli SH431. In words: Cell density (OD600) growth assay of E. coli SH431. As for the experimental part: (§2) All cell density and fluorescence measurements were taken in triplicate. 96-well culture plates (1 mL LB per well) with appropriate concentrations of necessary antibiotics and aminoglycoside were inoculated 1:100 from a saturated overnight liquid culture and allowed to grow for 48 hours at 37° C., 200 rpm shaking. For cell density assays, 40 μL of sample was taken from each well, diluted 5-fold, and OD600 was measured by microplate reader. The OD600 of the original culture was calculated by multiplying the reading by the dilution factor (Melançon et al., 2009, Bioorg. Med. Chem. Lett. 19:3845-3847). For cell pellet fluorescence imaging, cells were pelleted by centrifugation (4,000×g, 15 minutes, 4° C.) and the supernatant was decanted completely. The underside of the plate was illuminated at 365 nm using an ultraviolet handheld lamp and photgraphed with an 8 megapixel digital camera. For fluorescence quantification, cell pellets were resuspended in 1 mL of ¼×Ringer's solution (30.75 mM NaCl, 1.2 mM, KCl, 1.5 mM CaCl2, pH 7.3-7.4), 200 μL of cells from each well were transferred to black 96-well plates, and GFP fluorescence was measured (excitation=395 nm, bandwidth=9 nm; emission=509 nm, bandwidth=15 nm). Fluorescence intensities were calculated as fluorescence/OD600 of the sample minus fluorescence/OD600 of a sample of a non-GFP-expressing E. coli strain parental to the strain being analyzed in order to correct for both cell density and E. coli auto-fluorescence.
To extend the approach to a system with a different aminoglycoside resistance mutation, prrnC-sacB was replaced with pRRSH2-U1406A (see Section 2.2.2 for vector construction) in E. coli SQ380 (E. coli SH424), which was then transformed with pSH6-KF, resulting in the detection strain E. coli SH431. […] Dose-dependent fluorescence responses by E. coli SH431 were observed when treated with four of these compounds as determined by plate reader fluorescence assays (see section 1.6 for experimental details), including two to which E. coli SH399 was not resistant and therefore could not produce a response. […]

Test [1] concerns O-ribosome. In words: O-ribosome inhibition fluorescence assay in E. coli SH431 (pSH6-KF, pRRSH2-U1406A). Conditions: for detection of O-ribosome inhibition (fluorescence signal): E. coli SH431, U1406A 16S rRNA, aminoglycoside 0-500 μM; for relative potency as ribosome inhibitor (rank among four compounds): printed order: gentamicins, G418 and hygromycin B, kanamycin A. As for the experimental part:
as §2
To extend the approach to a system with a different aminoglycoside resistance mutation, prrnC-sacB was replaced with pRRSH2-U1406A (see Section 2.2.2 for vector construction) in E. coli SQ380 (E. coli SH424), which was then transformed with pSH6-KF, resulting in the detection strain E. coli SH431. E. coli SH431 was used to conduct ribosome inhibition assays identical to those performed with E. coli SH399. Dose-dependent fluorescence responses by E. coli SH431 were observed when treated with four of these compounds as determined by plate reader fluorescence assays (see section 1.6 for experimental details), including two to which E. coli SH399 was not resistant and therefore could not produce a response. (FIG. 4B and FIG. 20).

The subject of test [2] is O-ribosome. In words: O-ribosome inhibition fluorescence assay in E. coli SH399 (pSH6-KF, pRRSH2-A1408G). Particulars: for detection of O-ribosome inhibition (fluorescence signal): E. coli SH399, A1408G 16S rRNA, aminoglycoside 0-500 μM, 48 h; for dose-dependent fluorescence response pattern: E. coli SH399, increasing aminoglycoside concentrations; for relative ribosome inhibition activity (rank among ten compounds) / fluorescence at drug concentrations beyond those that give the peak response: E. coli SH399; for relative ribosome inhibition activity (rank among ten compounds): printed order: sisomicin, gentamicins, neomycin B, paromomycin, tobramycin, amikacin, ribostamycin, apramycin, kanamycin A, neamine. On the procedure:
as §2
Dose-dependent fluorescence responses by E. coli SH399 was observed when treated with five of these compounds as determined by plate reader fluorescence assays (see section 1.6 for experimental details). (FIG. 4A and FIG. 20).

For a further test, the system named is E. coli SH430. In words: Cell viability (OD600) assay of E. coli SH430 (pRRSH2, wild-type 16S rRNA). From the text: (§3) E. coli SQ380 was transformed with pRRSH2-A1408G; and prrnC-sacB was removed by sucrose counterselection, resulting in E. coli SH386. As a control, E. coli SQ380 was also transformed with pRRSH2; and prrnC-sacB was removed by sucrose counterselection, resulting in E. coli SH430.

The subject of another test is E. coli SH386. In words: Cell viability (OD600) assay of E. coli SH386 (pRRSH2-A1408G).
From the text: as §3

Test [3] concerns O-ribosome. Briefly: Ribosome inhibition fluorescence assay in E. coli SH391 (SH386 with pSH3-KF). Particulars: E. coli SH391, kanamycin 0-500 μM. As for the experimental part:
All cell density and fluorescence measurements were taken in triplicate. 96-well culture plates (1 mL LB per well) with appropriate concentrations of necessary antibiotics and aminoglycoside were inoculated 1:100 from a saturated overnight liquid culture and allowed to grow for 48 hours at 37° C., 200 rpm shaking. For cell density assays, 40 μL of sample was taken from each well, diluted 5-fold, and OD600 was measured by microplate reader. The OD600 of the original culture was calculated by multiplying the reading by the dilution factor (Melançon et al., 2009, Bioorg. Med. Chem. Lett. 19:3845-3847). For cell pellet fluorescence imaging, cells were pelleted by centrifugation (4,000×g, 15 minutes, 4° C.) and the supernatant was decanted completely. […] For fluorescence quantification, cell pellets were resuspended in 1 mL of ¼×Ringer's solution (30.75 mM NaCl, 1.2 mM, KCl, 1.5 mM CaCl2, pH 7.3-7.4), 200 μL of cells from each well were transferred to black 96-well plates, and GFP fluorescence was measured (excitation=395 nm, bandwidth=9 nm; emission=509 nm, bandwidth=15 nm). Fluorescence intensities were calculated as fluorescence/OD600 of the sample minus fluorescence/OD600 of a sample of a non-GFP-expressing E. coli strain parental to the strain being analyzed in order to correct for both cell density and E. coli auto-fluorescence.

The subject of the next test is E. coli SH434. Briefly: Growth inhibition assay of aminoglycoside-sensitive E. coli SH434 (pSH6-KF, pRRSH2). On the procedure: as §1
A further test has as its system E. coli SH399. In words: Cell density (OD600) growth assay of E. coli SH399. Particulars: E. coli SH399, concentrations beyond peak fluorescence response. As for the experimental part: as §1

Entries after “also recorded” stand apart in the source; their conditions may differ.

T1 sequence (P04483 whole entry): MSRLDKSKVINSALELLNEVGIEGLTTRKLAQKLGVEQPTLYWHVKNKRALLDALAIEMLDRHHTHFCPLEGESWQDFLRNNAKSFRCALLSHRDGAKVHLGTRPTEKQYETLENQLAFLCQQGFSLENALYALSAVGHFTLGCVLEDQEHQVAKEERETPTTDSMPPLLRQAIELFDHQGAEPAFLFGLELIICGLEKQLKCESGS

Consider `Cc1c2c(c(O)c3c(O)cccc13)C(=O)[C@]1(O)C(=O)C(C(N)=O)=C(O)[C@@H](N(C)C)[C@@H]1C2` [anhydrotetracycline], for which, on TetR, the “fluorescence level relative to the gfp-uv/tetR-expressing strain” value was 106.6%±1.2%.
Turning to `CN[C@@H]1[C@@H](O[C@H]2O[C@H](CO)[C@@H](N)[C@H](O)[C@H]2O)OC2C[C@@H](N)[C@@H](O[C@H]3[C@H](O)[C@@H](O)[C@H](N)C[C@@H]3N)OC2[C@@H]1O` (stereo partly drawn) [apramycin], the “resistance of SH431 conferred by the U1406A mutation” value (“resistance of SH431 conferred” for short) in the test on E. coli SH431 was “inability of the U1406A mutation to confer resistance”. The “detection of O-ribosome inhibition (fluorescence signal)” value (“detection of O-ribosome inhibition” below) in the test on O-ribosome [1] is on record as “lack of signal”. Moreover, in the test with O-ribosome [2], the “detection of O-ribosome inhibition” value was “able to detect O-ribosome inhibition” and the “dose-dependent fluorescence response pattern” value was “more gradual dose-dependent fluorescence increases”.
For `NC[C@H]1O[C@H](O[C@H]2[C@H](O)[C@@H](O[C@H]3O[C@H](CO)[C@@H](O)[C@H](N)[C@H]3O)[C@H](N)C[C@@H]2N)[C@H](O)[C@@H](O)[C@@H]1O` [kanamycin, kanamycin A], the growth inhibition entry was “significant growth inhibition” with E. coli SH430 (E. coli SH430, 10 μM kanamycin, 24 hours) and “no growth inhibition” in the test on E. coli SH386 (E. coli SH386, any kanamycin concentration tested (up to 500 μM), 24 hours). The “concentrations at which the strain cannot survive” value in the test with E. coli SH430 (E. coli SH430, 24 hours) is given as “above 10 μM”. For the same molecule, the “detection of O-ribosome inhibition” value with O-ribosome [1] and in the test with O-ribosome [2] was “able to detect O-ribosome inhibition” in each case. For the same molecule, in the test on O-ribosome [1] (E. coli SH431), the “relative potency as ribosome inhibitor (rank among four compounds)” value is “least potent”. In the test with O-ribosome [2], the “dose-dependent fluorescence response pattern” value is on record as “robust dose-dependent increase in fluorescence; also recorded: more gradual dose-dependent fluorescence increases”. Moreover, in the test with E. coli SH386 (E. coli SH386, A1408G), the “concentration up to which the strain is resistant (highest concentration tested)” value is “up to 500 μM”. This molecule yielded an increase in fluorescence with O-ribosome [3] of roughly 50%. In addition, the “maximum induction of fluorescence” value in the test on O-ribosome [3] (strong background fluorescence) stood at 1.6 fold.
For `NC[C@H]1O[C@H](O[C@H]2[C@H](O)[C@@H](O)[C@H](N)C[C@@H]2N)[C@H](N)[C@@H](O)[C@@H]1O` [neamine], the growth inhibition activity result with E. coli SH434 is “very weak”. Further, the “relative ribosome inhibition activity (rank among ten compounds)” value in the test on O-ribosome [2] (listed as Neamine) was “very weak”.
`NC[C@@H]1O[C@H](O[C@H]2[C@@H](O)[C@H](O[C@@H]3[C@@H](O)[C@H](N)C[C@H](N)[C@H]3O[C@H]3O[C@H](CN)[C@@H](O)[C@H](O)[C@H]3N)O[C@@H]2CO)[C@H](N)[C@@H](O)[C@@H]1O` [neomycin, neomycin B]: the “resistance of SH431 conferred” value in the test on E. coli SH431 is listed as “inability of the U1406A mutation to confer resistance”. In addition, the “detection of O-ribosome inhibition” value in the test on O-ribosome [1] is “lack of signal”. Further, in the test on O-ribosome [2], the “fluorescence at drug concentrations beyond those that give the peak response” value was “fluorescence decreases significantly”, the “detection of O-ribosome inhibition” value is given as “able to detect O-ribosome inhibition” and the “dose-dependent fluorescence response pattern” value is given as “robust fluorescence responses at low concentrations”.
Regarding `NC[C@@H]1O[C@H](O[C@H]2[C@@H](O)[C@H](O[C@@H]3[C@@H](O)[C@H](N)C[C@H](N)[C@H]3O[C@H]3O[C@H](CO)[C@@H](O)[C@H](O)[C@H]3N)O[C@@H]2CO)[C@H](N)[C@@H](O)[C@@H]1O` [paromomycin], the “growth inhibition accompanying the decrease in fluorescence” value in the test on E. coli SH399 is given as “accompanied by growth inhibition”. Besides, in the test on E. coli SH431, the “resistance of SH431 conferred” value is reported as “inability of the U1406A mutation to confer resistance”. Moreover, in the test with O-ribosome [1], the “detection of O-ribosome inhibition” value is listed as “lack of signal”. In the test on O-ribosome [2], the “fluorescence at drug concentrations beyond those that give the peak response” value is recorded as “fluorescence decreases significantly”, the “detection of O-ribosome inhibition” value is listed as “able to detect O-ribosome inhibition” and the “dose-dependent fluorescence response pattern” value is listed as “robust fluorescence responses at low concentrations”.
`CN[C@@H]1[C@@H](O)[C@@H](O[C@@H]2[C@@H](O)[C@H](O[C@H]3OC(CN)=CC[C@H]3N)[C@@H](N)C[C@H]2N)OC[C@]1(C)O` [sisomicin]: the “relative ribosome inhibition activity (rank among ten compounds)” value with O-ribosome [2] is “strongest ribosome inhibition activity”.
gentamicin [gentamicins]: in the test on E. coli SH399, the “growth inhibition accompanying the decrease in fluorescence” value is listed as “accompanied by growth inhibition”. In addition, in the test with O-ribosome [1] (E. coli SH431), the “response at higher concentrations” value was “Dose-dependent decreases in response” and the “relative potency as ribosome inhibitor (rank among four compounds)” value is reported as “most potent ribosome inhibitors”. For the same molecule, in the test on O-ribosome [1], the “detection of O-ribosome inhibition” value is “able to detect O-ribosome inhibition”. In the test with O-ribosome [2], the “fluorescence at drug concentrations beyond those that give the peak response” value is recorded as “fluorescence decreases significantly”, the “detection of O-ribosome inhibition” value was “able to detect O-ribosome inhibition” and the “dose-dependent fluorescence response pattern” value is reported as “robust fluorescence responses at low concentrations”.
